# Experimental data: paper PMC5341752, “New bipyridine gold(III) dithiocarbamate-containing complexes exerted a potent anticancer activity against cisplatin-resistant cancer cells independent of p53 status” (Oncotarget, 2016)
# Columns and labels:
# [1] = test system: A2780 cells; assay: Growth inhibition, MTT assay, A2780 cells; format: cell-based, human; conditions: 72 h exposure; for IC50: mean ± SEM
# Procedure: (§1) PC3 and MCF-7 cells (2.5 × 10^3), A2780, A2780cis (4.0 × 10^3), A2780CP-16 and lung cancer cells (H460, A549, H226, H838, H157, H1975, H2122, SKLU1 and H1299) were seeded in 96-well flat-bottomed microplates (100 μL) and incubated for 24 h (to allow cell adhesion) before drug testing. The medium was then removed and replaced with fresh medium containing the gold(III) complexes (compound 1–9) to be tested at increasing concentrations (from 0.01 to 100 μM) at 37°C for 72 h. Each treatment was performed in triplicate. Cell proliferation was assayed using the MTT assay. Alternatively, L-540 cells (2.0 × 10^5/mL) were seeded in 96-well plates and treated as previously described. After treatment, cell proliferation was evaluated by the MTS assay (Promega). IC50 (i.e., the half maximal inhibitory concentration representing the concentration of a substance required for 50% in vitro inhibition) IC75 and IC90 values (Supplementary Table S1) were calculated using the CalcuSyn software (Biosoft, Ferguson, MO, USA). Dependence of activity on p53 was assessed in A2780 cells following p53 knockdown by CRISPR [48].
# [2] = test system: A2780, A2780cis, MCF-7, PC3, L-540 cells; assay: Caspase 3 activation, FLICA reagent, flow cytometry; format: cell-based, human; conditions: IC75, 0, 24 and 48 h
# Procedure: (§2) PC3 (2.5 × 10^4), MCF-7 (5.0 × 10^4), A2780 and A2780cis (5.0 × 10^4), and L-540 cells (2.0 × 10^5/mL) were incubated in six-well plates with compound 1 (IC75) (Figure 1) for 72 h. Annexin-V binding (Becton-Dickinson [BD] Pharmingen, San Jose, CA) together with propidium iodide (PI) staining was detected in tumor cells by flow cytometry, as described. Caspase 3 and 9 activation was evaluated using the fluorochrome inhibitors of caspases (FLICA) Caspa-TagTM caspase-3/7 (FAM-DEVD-FMK) and caspase 9 (FAM-LETD) (Chemicon International, Milan, Italy). Briefly, cells were treated with compound 1 (IC75), then harvested, washed and resuspended in warmed complete medium supplemented with FLICA for 1 h and then immediately analyzed by flow cytometry. DNA fragmentation was assessed using the Apo-Direct kit (Becton-Dickinson Pharmigen, CA, USA) according to manufacturer's instructions. […] Red fluorescence was immediately analyzed by flow cytometry. Viable cells were identified according to their forward and right-angle scattering, electronically gated and analyzed on a FACScan flow cytometer (BD), using CellQuest software (BD). […] After 72 h, ROS formation and viable cells number were evaluated by flow cytometry and trypan blue dye exclusion assay, respectively. […]
# [3] = test system: tumor cells; assay: Caspase 9 activation, FLICA reagent, flow cytometry; format: cell-based, human; conditions: IC75, 24 h
# Procedure: as §2
# [4] = test system: tumor cells; assay: Cytochrome-c release, flow cytometry; format: cell-based, human; conditions: IC75, 24 h
# [5] = test system: A2780cis cells; assay: Growth inhibition, MTT assay, cisplatin-resistant A2780cis cells; format: cell-based, human; conditions: for IC50: mean ± SEM; for Fold resistance A2780cis/A2780 ratio: ratio A2780cis IC50/A2780 IC50
# Procedure: as §1
# [6] = Stability by UV-Vis spectra in DMSO over 24 hours at 37°C; format: physicochemical; conditions: DMSO solution
# Procedure: Electronic spectra were recorded on each complex freshly prepared in DMSO solution at room temperature. Then, their electronic spectra were monitored over 24 hours at 37°C. The resulting UV-Vis absorption spectra of compound 1, 2 and 3 are shown in Supplementary Figure S4A–S4C.
# [7] = test system: MCF-7 cells; assay: Growth inhibition, MTT assay, MCF-7 cells; format: cell-based, human; conditions: for IC50: mean ± SEM
# Procedure: as §1
# [8] = test system: L-540 cells; assay: Growth inhibition, MTS assay, L-540 cells; format: cell-based, human; conditions: 72 h exposure; for IC50: mean ± SEM
# Procedure: as §1
# [9] = test system: tumor cells; assay: Mitochondrial ROS, MitoSox, flow cytometry; format: cell-based, human; conditions: IC75, 72 h
# Procedure: as §2
# [10] = test system: tumor cells; assay: Mitochondrial membrane permeabilization, CMXRos, flow cytometry; format: cell-based, human; conditions: IC75, 24 h
# Procedure: as §2
# [11] = test system: A2780, A2780cis, MCF-7, PC3, L-540 cells; assay: DNA fragmentation, Apo-Direct, flow cytometry; format: cell-based, human; conditions: IC75, 72 h
# Procedure: as §2
# [12] = test system: human Mesenchymal stromal cells (MSCs); assay: Proliferation of normal Mesenchymal stromal cells, MTT assay; format: cell-based; conditions: 72 h
# Procedure: Bone Marrow (BM) derived human Mesenchymal Stromal Cells (MSCs) were from Lonza (Lonza, Verviers, Belgium). MSCs were maintained in MSGM bullet kit (Lonza) and experiments were performed in DMEM medium (Cambrex Bio Science, Milano, Italy) supplemented with 10% FCS. To evaluate effects of compound 1, MSCs (5.0 × 10^3) were seeded in 96-well flat-bottomed microplates (100 μL) and incubated for 24 h (to allow cell adhesion) before drug testing. The medium was then removed and replaced with fresh medium containing compound 1 to be tested at increasing concentrations (from 0.1 to 1 μM) at 37°C for 72 h. Each treatment was performed in triplicate. Cell proliferation was assayed using the MTT assay.
# [13] = test system: tumor cells; assay: Cell cycle progression; format: cell-based; conditions: data not shown
# [14] = test system: A2780, A2780cis, MCF-7, PC3, L-540 cells; assay: Apoptosis, Annexin V/PI double staining, flow cytometry; format: cell-based, human; conditions: IC75, 72 h
# Procedure: as §2
# [15] = test system: PC3 cells; assay: Growth inhibition, MTT assay, PC3 cells; format: cell-based, human; conditions: 72 h exposure; for IC50: mean ± SEM
# Procedure: as §1
# [16] = test system: A2780 CRISPR Control cells (WT-p53); assay: MTT assay in A2780 clone transfected with CRISPR control plasmid; format: cell-based, human; conditions: mean ± SEM
# Procedure: as §1
# [17] = test system: A2780 CRISPR p53 KO cells; assay: MTT assay in A2780 clone with p53 knocked out by CRISPR/Cas9; format: cell-based, human; conditions: mean ± SEM
# Procedure: as §1
# [18] = test system: NSCLC cell lines (H460, A549, H226, H838, H157, H1975, H2122, SKLU1, H1299); assay: Cytotoxicity in a panel of NSCLC cell lines, MTT assay; format: cell-based; conditions: all NSCLC cell lines
# Procedure: as §1
# [19] = test system: 2780CP cells; set-up: method as in PMID 10643661; conditions: 2780CP-16 versus A2780; cited from earlier work
compound,measurement,setting,value
"CN(C)C1=[S+][Au-]2([S]1)[n+]1ccccc1-c1cccc[n+]12.[Cl-].[Cl-] [Compound 1, [Au(BPY)(DMTC)]Cl2]",IC75 A2780,[1],450 ± 40 nM
same,IC90,[1],600 ± 50 nM
same,IC50,[1],180 ± 20 nM
same,caspase 3 activation,[2],induced a time-dependent activation of caspase 3
same,caspase 9 activation,[3],induced activation of caspase 9
same,cytochrome-c release from the mitochondria,[4],cytochrome-c (Cyt-c) release
same,IC75 A2780cis,"[5]; 72 h exposure, MTT",430 ± 40 nM
same,IC90,"[5]; 72 h exposure, MTT",560 ± 60 nM
same,IC50,"[5]; 72 h exposure, MTT",170 ± 10 nM
same,fold more active than cisplatin in inhibiting cell proliferation,[5]; A2780cis cells,about 60 fold
same,stability by UV spectra,[6],confirm the stability under physiological temperature
same,IC75 MCF-7,"[7]; 72 h exposure, MTT",510 ± 50 nM
same,IC90,"[7]; 72 h exposure, MTT",740 ± 80 nM
same,IC50,"[7]; 72 h exposure, MTT",270 ± 20 nM
same,fold more active than cisplatin in inhibiting cell proliferation,[7]; MCF-7 cells,~80 fold
same,IC75 L-540,[8],3500 ± 320 nM
same,IC90,[8],4200 ± 390 nM
same,IC50,[8],2680 ± 240 nM
same,mitochondrial ROS levels,[9],increased mitochondrial ROS levels
same,mitochondrial membrane permeabilization,[10],promoted mitochondrial membrane permeabilization
same,DNA fragmentation (Apo-Direct),[11],Apoptosis induction was confirmed by DNA fragmentation
same,IC50,[12],960 nM
same,cell cycle progression,[13],only slightly affected
same,apoptosis (Annexin-V/PI),[14],induced apoptosis in the cell lines tested
same,IC75 PC3,[15],730 ± 70 nM
same,IC90,[15],910 ± 110 nM
same,IC50,[15],420 ± 40 nM
"CCN(CC)C(=S)[S-].[Au+3].[Cl-].[Cl-].c1ccc(-c2ccccn2)nc1 [Compound 2, [Au(BPY)(DETC)]Cl2]",IC50,[1],240 ± 20 nM
same,IC50,"[5]; 72 h exposure, MTT",180 ± 10 nM
same,stability by UV spectra,[6],confirm the stability under physiological temperature
same,IC50,"[7]; 72 h exposure, MTT",270 ± 20 nM
same,IC50,[8],2800 ± 250 nM
same,IC50,[15],700 ± 60 nM
"S=C([S-])N(Cc1ccccc1)Cc1ccccc1.[Au+3].[Cl-].[Cl-].c1ccc(-c2ccccn2)nc1 [Compound 3, [Au(BPY)(DBTC)]Cl2]",IC50,[1],4660 ± 130 nM
same,IC50,"[5]; 72 h exposure, MTT",14300 ± 1120 nM
same,Fold resistance A2780cis/A2780 ratio,[5],3.07
same,IC50,[16],870 ± 110 nM
same,stability by UV spectra,[6],confirm the stability under physiological temperature
same,IC50,"[7]; 72 h exposure, MTT",23000 ± 2070 nM
same,IC50,[8],12000 ± 1080 nM
same,IC50,[17],1130 ± 390 nM
same,IC50,[15],11200 ± 1000 nM
"Cc1ccc2[n+](c1)[Au-]1([S]C(N(C)C)=[S+]1)[n+]1cc(C)ccc1-2.[Cl-].[Cl-] [Compound 4, [Au(5,5′-Me2BPY)(DMTC)]Cl2]",IC50,[1],280 ± 30 nM
same,"fold greater potency than compounds 3, 6 and 9",[18],at least 10 fold
same,IC50,"[5]; 72 h exposure, MTT",170 ± 10 nM
same,IC50,[16],87 ± 3 nM
same,IC50,"[7]; 72 h exposure, MTT",280 ± 20 nM
same,IC50,[8],2700 ± 220 nM
same,IC50,[17],83 ± 3 nM
same,IC50,[15],590 ± 50 nM
"CCN(CC)C1=[S+][Au-]2([S]1)[n+]1cc(C)ccc1-c1ccc(C)c[n+]12.Cl.Cl [Compound 5, [Au(5,5′-Me2BPY)(DETC)]Cl2]",IC50,[1],590 ± 50 nM
same,IC50,"[5]; 72 h exposure, MTT",230 ± 20 nM
same,IC50,"[7]; 72 h exposure, MTT",290 ± 30 nM
same,IC50,[8],2900 ± 260 nM
same,IC50,[15],860 ± 80 nM
"Cc1ccc2[n+](c1)[Au-]1([S]C(N(Cc3ccccc3)Cc3ccccc3)=[S+]1)[n+]1cc(C)ccc1-2.[Cl-].[Cl-] [Compound 6, [Au(5,5′-Me2BPY)(DBTC)]Cl2]",IC50,[1],6350 ± 60 nM
same,IC50,"[5]; 72 h exposure, MTT",15700 ± 1410 nM
same,Fold resistance A2780cis/A2780 ratio,[5],2.47
same,IC50,"[7]; 72 h exposure, MTT",18000 ± 1620 nM
same,IC50,[8],6500 ± 60 nM
same,IC50,[15],11600 ± 1040 nM
"Cc1cccc2[n+]1[Au-]1([S]C(N(C)C)=[S+]1)[n+]1c(C)cccc1-2.[Cl-].[Cl-] [Compound 7, [Au(6,6′-Me2BPY)(DMTC)]Cl2]",IC50,[1],270 ± 20 nM
same,"fold greater potency than compounds 3, 6 and 9",[18],at least 10 fold
same,IC50,"[5]; 72 h exposure, MTT",230 ± 20 nM
same,IC50,"[7]; 72 h exposure, MTT",350 ± 30 nM
same,IC50,[8],3600 ± 320 nM
same,IC50,[15],770 ± 70 nM
"CCN(CC)C1=[S+][Au-]2([S]1)[n+]1c(C)cccc1-c1cccc(C)[n+]12.Cl.Cl [Compound 8, [Au(6,6′-Me2BPY)(DETC)]Cl2]",IC50,[1],730 ± 60 nM
same,IC50,"[5]; 72 h exposure, MTT",450 ± 30 nM
same,IC50,"[7]; 72 h exposure, MTT",470 ± 40 nM
same,IC50,[8],6200 ± 560 nM
same,IC50,[15],1600 ± 140 nM
"Cc1cccc2[n+]1[Au-]1([S]C(N(Cc3ccccc3)Cc3ccccc3)=[S+]1)[n+]1c(C)cccc1-2.[Cl-].[Cl-] [Compound 9, [Au(6,6′-Me2BPY)(DBTC)]Cl2]",IC50,[1],6700 ± 600 nM
same,IC50,"[5]; 72 h exposure, MTT",16000 ± 1440 nM
same,Fold resistance A2780cis/A2780 ratio,[5],2.39
same,IC50,"[7]; 72 h exposure, MTT",31000 ± 2790 nM
same,IC50,[8],35800 ± 3220 nM
same,IC50,[15],11500 ± 1030 nM
cis-[Pt(NH3)2Cl2] [Cisplatin],IC50,[1],1500 ± 100 nM
same,IC50,"[5]; 72 h exposure, MTT",10400 ± 900 nM
same,Fold resistance A2780cis/A2780 ratio,[5],6.93
same,Fold resistance A2780cis/A2780 ratio,[5]; listed as cisplatin,about 7
same,IC50,"[7]; 72 h exposure, MTT",22200 ± 200 nM
same,IC50,[8],2500 ± 100 nM
same,fold cisplatin resistance of 2780CP cells,[19],20 fold
same,IC50,[15],3300 ± 300 nM
